pIC50: −log10 of the molar value. Activity calls are given as the source filed them. The rule behind the calls is not given here.
Key:
[1] = Drug metabolism in mouse kidney assessed as (4bR,9S)-1-(hydroxymethyl)-3,7-dimethoxy-11-methyl-6-oxo-6,8a,9,10-tetrahydro-5H-9,4b-(epiminoethano)phenanthren-4-yl cinnamate metabolite formation at 50 mg/kg, po measured for 0.083 to 8 hrs by HPLC analysis; type: ADME, organism-based; settings: in vivo, time 0.083-8 hrs
[2] = Drug metabolism in Sprague-Dawley rat plasma assessed as (4bR,9S)-1-(hydroxymethyl)-3,7-dimethoxy-11-methyl-6-oxo-6,8a,9,10-tetrahydro-5H-9,4b-(epiminoethano)phenanthren-4-yl cinnamate metabolite formation at 50 mg/kg, po measured for 24 hrs by HPLC analysis; type: ADME, organism-based; settings: in vivo
[3] = Drug metabolism in mouse kidney assessed as cinnamic acid metabolite formation at 50 mg/kg, po measured for 0.083 to 8 hrs by HPLC analysis; type: ADME, organism-based; settings: in vivo, time 0.083-8 hrs
[4] = Drug metabolism in mouse blood assessed as (4bR,9S)-1-(hydroxymethyl)-3,7-dimethoxy-11-methyl-6-oxo-6,8a,9,10-tetrahydro-5H-9,4b-(epiminoethano)phenanthren-4-yl cinnamate metabolite formation at 50 mg/kg, po measured for 0.083 to 8 hrs by HPLC analysis; type: ADME, organism-based; settings: in vivo, time 0.083-8 hrs
[5] = Drug metabolism in rat plasma assessed as hydrolyzation/hydroxylation-mediated metabolite formation at 50 mg/kg, po measured for 24 hrs by HRMS analysis; type: ADME, organism-based; settings: in vivo
[6] = Drug metabolism in Sprague-Dawley rat plasma assessed as cinnamic acid metabolite formation at 5 mg/kg, iv measured for 24 hrs by HPLC analysis; type: ADME, organism-based; settings: in vivo
[7] = Drug metabolism in mouse spleen assessed as (4bR,9S)-1-(hydroxymethyl)-3,7-dimethoxy-11-methyl-6-oxo-6,8a,9,10-tetrahydro-5H-9,4b-(epiminoethano)phenanthren-4-yl cinnamate metabolite formation at 50 mg/kg, po measured for 0.083 to 8 hrs by HPLC analysis; type: ADME, organism-based; settings: in vivo, time 0.083-8 hrs
[8] = Drug metabolism in mouse lymph node assessed as cinnamic acid metabolite formation at 50 mg/kg, po measured for 0.083 to 8 hrs by HPLC analysis; type: ADME, organism-based; settings: in vivo, time 0.083-8 hrs
[9] = Drug metabolism in rat plasma assessed as double hydrolyzation/double hydroxylation-mediated metabolite formation at 50 mg/kg, po measured for 24 hrs by HRMS analysis; type: ADME, organism-based; settings: in vivo
[10] = Drug metabolism in rat plasma assessed as (4bR,9S)-1-(hydroxymethyl)-3,7-dimethoxy-11-methyl-6-oxo-6,8a,9,10-tetrahydro-5H-9,4b-(epiminoethano)phenanthren-4-yl cinnamate metabolite formation at 50 mg/kg, po measured for 24 hrs by HRMS analysis; type: ADME, organism-based; settings: in vivo
[11] = Stability in mouse blood assessed as compound remaining at 50 mg/kg, po measured for 0.083 to 8 hrs by HPLC analysis; type: ADME, organism-based; settings: in vivo, time 0.083-8 hrs
HepG2 = test: Cytotoxicity against human HepG2 cells assessed as inhibition of cell viability incubated for 72 hrs by CCK8 assay; type: functional, cell-based; settings: HepG2, 72 h
NRK-52E = test: Cytotoxicity against rat NRK-52E cells assessed as inhibition of cell viability incubated for 72 hrs by CCK8 assay; type: functional, cell-based
HL-60 = test: Cytotoxicity against human HL-60 cells assessed as inhibition of cell viability incubated for 72 hrs by CCK8 assay; type: functional, cell-based; settings: HL-60, 72 h
CD8-positive T cell [12] = test: Inhibition of CD3/CD28-activated CD8-positive T cell activation in BALB/c mouse lymph nodes assessed as decrease in IFN-gamma level at 1 to 10 uM incubated for 72 hrs by ELISA; type: functional, tissue-based; settings: Lymph node, dose 1-10 µM
Mus musculus [13] = test: Anti-aplastic anemia activity in C57BL/6J mouse model of immune-mediated bone marrow failure assessed as increase in white blood cells treated intragastrically once daily for 21 days; type: functional, organism-based; settings: dose 5-15 mg/kg, route ig, time 21.0 day
Mus musculus [14] = test: Anti-aplastic anemia activity in C57BL/6J mouse model of immune-mediated bone marrow failure assessed as increase in peripheral red blood cells treated intragastrically once daily for 21 days; type: functional, organism-based; settings: dose 5-15 mg/kg, route ig, time 21.0 day
CD8-positive T cell [15] = test: Inhibition of CD3/CD28-activated CD8-positive T cell activation in BALB/c mouse lymph nodes assessed as decrease in cluster formation of cells at 1 to 10 uM incubated for 72 hrs by microscopy; type: functional, cell-based; settings: Lymph node, dose 1-10 µM
Mus musculus [16] = test: Anti-aplastic anemia activity in BALB/c mouse model of immune-mediated bone marrow failure assessed as increase in body weight at 10 mg/kg, po treated for 14 days; type: functional, organism-based; settings: time 14.0 day
CTLL-2 [17] = test: Induction of ferroptosis in mouse CTLL-2 cells assessed as increase in p-p38 level at 7.5 to 30 uM incubated for 16 hrs by Western blot analysis; type: functional, cell-based; settings: dose 7.5-30 µM
Mus musculus [18] = test: Anti-aplastic anemia activity in C57BL/6J mouse model of immune-mediated bone marrow failure assessed as increase in memory CD8+ T cells at 5 to 15 mg/kg, IG qd treated for 12 days by flow cytometry; type: functional, organism-based; settings: dose 5-15 mg/kg, time 12.0 day
Mus musculus [19] = test: Anti-aplastic anemia activity in BALB/c mouse model of immune-mediated bone marrow failure assessed as increase in peripheral red blood cells at 10 mg/kg, po treated for 14 days; type: functional, organism-based; settings: time 14.0 day
CD8-positive T cell [20] = test: Inhibition of CD3/CD28-activated CD8-positive T cell activation in BALB/c mouse lymph nodes assessed as decrease in lactate production at 1 to 10 uM incubated for 72 hrs; type: functional, tissue-based; settings: Lymph node, dose 1-10 µM
CTLL-2 [21] = test: Induction of ferroptosis in mouse CTLL-2 cells assessed as increase in pERK level at 7.5 to 30 uM incubated for 16 hrs by Western blot analysis; type: functional, cell-based; settings: dose 7.5-30 µM
[22] = Acute toxicity in 12 hr-fasted KM mouse assessed as animal survival at 10 g/kg, po administered as single dose measured for 14 days; type: organism-based; settings: in vivo, 10000 mg/kg, 336 h, time 14 day
CTLL-2 [23] = test: Induction of ferroptosis in mouse CTLL-2 cells assessed as increase in ROS level at 10 uM incubated for 45 mins in presence of 2-APB; type: functional, cell-based
CD8-positive T cell [24] = test: Inhibition of CD3/CD28-activated CD8-positive T cell activation in BALB/c mouse lymph nodes assessed as decrease in glucose consumption at 1 to 10 uM incubated for 72 hrs; type: functional, tissue-based; settings: Lymph node, dose 1-10 µM
Mus musculus [25] = test: Anti-aplastic anemia activity in C57BL/6J mouse model of immune-mediated bone marrow failure assessed as increase in hemoglobin level treated intragastrically once daily for 21 days; type: functional, organism-based; settings: dose 5-15 mg/kg, route ig, time 21.0 day
CTLL-2 [26] = test: Induction of ferroptosis in mouse CTLL-2 cells assessed as increase in intracellular Ca2+ concentration incubated for 24 hrs by Fluo-4 AM dye based analysis; type: functional, cell-based
Mus musculus [27] = test: Anti-aplastic anemia activity in BALB/c mouse model of immune-mediated bone marrow failure assessed as decrease in abnormal proportion of lymphocytes in bone marrow at 10 mg/kg, po treated for 14 days by H and E staining based analysis; type: functional, organism-based; settings: time 14.0 day
Mus musculus [28] = test: Anti-aplastic anemia activity in C57BL/6J mouse model of immune-mediated bone marrow failure assessed as CD4+ T cells at 15 mg/kg, IG qd treated for 12 days by flow cytometry (reference value: 12.93 %); type: functional; settings: time 12 day
[29] = AUC in Sprague-Dawley rat at 50 mg/kg, po measured for 0.083 to 24 hrs by HPLC analysis; type: ADME, organism-based; settings: in vivo, time 0.083-24 hrs

For `COC1=C[C@@H]2[C@@H]3Cc4c(COC(=O)/C=C/c5ccccc5)cc(OC)c(OC(=O)/C=C/c5ccccc5)c4[C@]2(CCN3C)CC1=O`, the Drug metabolism [1] was “metabolite_detected”, the Drug metabolism [2] was “metabolite_detected” and the Drug metabolism [3] was “metabolite_detected”. For the same compound, the Drug metabolism [4] was “metabolite_detected”, the Drug metabolism [5] was “metabolite_detected” and the Drug metabolism [6] was “metabolite_detected”. The Drug metabolism [7] was “metabolite_detected”, the Drug metabolism [8] was “metabolite_detected” and the Drug metabolism [9] was “metabolite_detected”. For the same compound, the Drug metabolism [10] was “metabolite_detected” and the Stability [11] was “Unstable”.

`COC1=C[C@@H]2[C@@H]3Cc4c(CO)cc(OC)c(OC(=O)/C=C/c5ccccc5)c4[C@]2(CCN3C)CC1=O` showed a pIC50 (HepG2) of 3.31, a pIC50 (NRK-52E) of 3.15 and a pIC50 (HL-60) of 3.88. The inhibition (CD8-positive T cell [12]) was “Active”, the Activity (Mus musculus [13]) was “Dose-dependent-effect” and the Activity (Mus musculus [14]) was “Dose-dependent-effect”. For the same compound, the inhibition (CD8-positive T cell [15]) was “Active”, the Activity (Mus musculus [16]) was “Active” and the Activity (CTLL-2 [17]) was “Active”. For the same compound, the Activity (Mus musculus [18]) was “Active”, the Activity (Mus musculus [19]) was “Active” and the inhibition (CD8-positive T cell [20]) was “Active”. For the same compound, the Activity (CTLL-2 [21]) was “Active”, the Activity [22] was “Non-toxic” and the Activity (CTLL-2 [23]) was “inactive”. For the same compound, the inhibition (CD8-positive T cell [24]) was “Active”, the Activity (Mus musculus [25]) was “Dose-dependent-effect” and the Activity (CTLL-2 [26]) was “Active”. For the same compound, the Activity (Mus musculus [27]) was “Active”, the Activity (Mus musculus [28]) was 37.87% and the AUC [29] was 15400 ng·h/mL.

Source: ChEMBL document CHEMBL6177973, “A Novel Compound 3a-M1, from Metabolites of Sinomenine Derivative 3a, Exerts Potent Anti-Aplastic Anemia Activity via IP3R/ORAI-Mediated CTL Ferroptosis” (J Med Chem, 2025)
